Values of other authors as cited in patent US20240033221A1, “LONG-ACTING BUPIVACAINE MICROSPHERE FORMULATIONS” (Scienture, Inc., priority 2020, published 2024).
Where a name gives a salt, the structure may show the parent alone.

Settings: dental injections

In the case of `CCCCN1CCCCC1C(=O)Nc1c(C)cccc1C` (centres unmarked) [bupivacaine HCl, bupivacaine hydrochloride], the duration of action is given as 2 to 8 h and the onset of action is given as 2 to 10 min.
